Data from patent US20090291442A1, “HSPA1A AS A MARKER FOR SENSITIVITY TO KSP INHIBITORS” (SMITHKLINE BEECHAM CORPORATION, priority 2006, published 2009).
Structures can show the parent of a compound that is named as a salt.

Experiments:
[1] = tested on: Wilm's tumor WT7 xenograft; assay: Outcome of human Wilm's tumor xenograft WT7 to KSP inhibitor; format: in vivo; details: Wilm's tumor xenograft WT7, known outcome
Protocol: (§1) Affymetrix® gene expression profiling was conducted to identify baseline expression patterns associated with sensitivity to the KSP inhibitor in human Wilm's tumor xenograft models. Total RNA from three distinct Wilm's tumors with known outcomes to Ispinesib mesylate (2-3 replicates) inhibition was labeled using a 5 μg protocol and hybridized to the HG-U133A Affymetrix® array. Baseline gene expression differences between tumors resistant (WT7 and WT8) and sensitive (WT10) to Ispinesib mesylate were compared. […] Validation by QPCR of the same tumors confirmed this expression pattern.

[2] = tested on: Wilm's tumor WT8 xenograft; assay: Outcome of human Wilm's tumor xenograft WT8 to KSP inhibitor; format: in vivo; details: Wilm's tumor xenograft WT8, known outcome
Protocol: as §1

[3] = tested on: Wilm's tumor WT10 xenograft; assay: Outcome of human Wilm's tumor xenograft WT10 to KSP inhibitor; format: in vivo; details: Wilm's tumor xenograft WT10, known outcome
Protocol: as §1

Colo201 (colon cancer) = assay: Cell line sensitivity to KSP inhibitor (FACS analysis); format: cell-based; details: Colo201 cells
From the text: (§2) Baseline expression of HSPA1a was validated in 4 cell lines: MX1 (breast cancer) and MV522 (lung cancer) resistant to Ispinesib mesylate and Colo201 (colon cancer) and Colo205 (colon cancer) sensitive to Ispinesib mesylate inhibition. Like the tumors, HSPA1a expression differentiated the resistant cell lines from the sensitive cell lines.
(§3) A more extensive list of preclinical cell lines compared with those presented in Example 2, including cell lines from both solid and liquid tumors, was analyzed. Again, these cell lines were previously determined to be either resistant or sensitive to Ispinesib mesylate using FACS analysis. […] Of the 22 cell lines analyzed, HSPA1a expression levels were correctly able to classify 19 cell lines as resistant or sensitive to the KSP inhibitor. The HSPA1a marker misclassified 2 cell lines Daudi and HCT116 as sensitive (due to low baseline expression in these cells) and HeLaS3 cell line as resistant (due to high baseline expression of HSPA1a in these cells).

Colo205 (colon cancer) = assay: as above; format: cell-based; details: Colo205 cells
From the text: as §2, §3

MV522 (lung cancer) = assay: as above; format: cell-based; details: MV522 cells
From the text: as §2, §3

MX1 (breast cancer) = assay: as above; format: cell-based; details: MX1 cells
From the text: as §2, §3

KSP = target: T1, KSP (Homo sapiens, UniProt P52732); details: literature statement; cited from earlier work
T1 sequence (P52732 1-1056): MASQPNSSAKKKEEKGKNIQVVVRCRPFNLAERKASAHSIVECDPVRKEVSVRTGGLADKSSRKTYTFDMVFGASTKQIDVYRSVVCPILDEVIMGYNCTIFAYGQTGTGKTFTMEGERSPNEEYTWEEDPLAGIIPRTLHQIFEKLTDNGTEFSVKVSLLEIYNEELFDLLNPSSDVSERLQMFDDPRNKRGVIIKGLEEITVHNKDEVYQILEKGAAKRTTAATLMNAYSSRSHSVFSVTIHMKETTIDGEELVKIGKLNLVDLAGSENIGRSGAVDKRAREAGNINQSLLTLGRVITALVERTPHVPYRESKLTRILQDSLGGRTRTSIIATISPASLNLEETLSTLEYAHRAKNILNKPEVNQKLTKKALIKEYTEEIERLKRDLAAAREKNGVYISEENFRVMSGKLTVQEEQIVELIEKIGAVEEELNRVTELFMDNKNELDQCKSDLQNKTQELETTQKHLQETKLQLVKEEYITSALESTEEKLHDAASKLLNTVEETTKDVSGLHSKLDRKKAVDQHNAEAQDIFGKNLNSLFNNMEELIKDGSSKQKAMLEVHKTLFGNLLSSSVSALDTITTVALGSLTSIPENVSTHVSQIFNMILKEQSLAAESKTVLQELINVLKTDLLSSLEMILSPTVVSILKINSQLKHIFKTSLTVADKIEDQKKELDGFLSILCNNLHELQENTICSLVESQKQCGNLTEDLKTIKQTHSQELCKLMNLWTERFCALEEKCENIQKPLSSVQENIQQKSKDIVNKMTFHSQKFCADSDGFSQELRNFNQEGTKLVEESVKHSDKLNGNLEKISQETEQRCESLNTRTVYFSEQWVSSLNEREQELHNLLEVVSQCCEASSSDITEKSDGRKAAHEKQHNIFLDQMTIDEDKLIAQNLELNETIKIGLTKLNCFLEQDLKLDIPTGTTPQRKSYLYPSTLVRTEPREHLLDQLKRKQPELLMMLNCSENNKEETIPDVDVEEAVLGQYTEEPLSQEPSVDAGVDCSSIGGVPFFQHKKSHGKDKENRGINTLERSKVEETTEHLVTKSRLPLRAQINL

Cc1ccc(C(=O)N(CCCN)[C@@H](c2nc3cc(Cl)ccc3c(=O)n2Cc2ccccc2)C(C)C)cc1 [Ispinesib mesylate]
tumor resistant or sensitive to the compound [1]: resistant
tumor resistant or sensitive to the compound [2]: resistant
tumor resistant or sensitive to the compound [3]: sensitive
cell line resistant or sensitive to the compound (Colo201 (colon cancer)): sensitive
cell line resistant or sensitive to the compound (Colo205 (colon cancer)): sensitive
cell line resistant or sensitive to the compound (MV522 (lung cancer)): resistant
cell line resistant or sensitive to the compound (MX1 (breast cancer)): resistant
inhibition of KSP (in words) (KSP): potent and selective inhibitor of KSP
